Data published in US20100009973A1, “Integrase Inhibitors 3” (AVEXA LIMITED, priority 2006, published 2010).

Key:
[1] = target: T1, HIV integrase (Human immunodeficiency virus type 1 group M subtype B, UniProt P04585); experiment: 3'processing/strand transfer combined assay; assay type: biochemical
Method: (§1) A combined 3′-processing/strand transfer assay procedure similar to that published (Ovenden et al. Phytochemistry. 2004 December; 65(24):3255-9.) was used. This assay was adapted to a 96 well plate format. Briefly, 400 ng of […] is incubated with 30 nM substrate DNA, consisting of annealed U5 LTR sequence oligonucleotides tagged with Digoxigenin (DIG; 5′-[…]-DIG-3′) or biotin (5′-Bio-[…]-3′) so that each substrate has either a DIG or Bio tag on opposite strands. Reactions are carried out for 2 hrs at 37° C., products generated as a result of 3′processing and strand transfer activity are bound to streptavidin plates and detected with using anti-DIG-alkaline phosphatase conjugate and p-nitro phenyl phosphate substrate.

[2] = tested on: HIV; experiment: Inhibition of HIV replication (extracellular p24); assay type: cell-based; settings: Human immunodeficiency virus 1; concentration inhibiting HIV p24 production to 50% of no drug controls
Method: Cells are seeded into 96 well microtitre plates at 50,000 cells per 50 ul per well in RF-10 containing 2 μg/mL polybrene (RF-10/2). Compounds are prepared to 4× final concentration in RF-10/2, and 30 μL added to cells. Virus (40 μL in RF-10/2 containing 1600 pfu) is added to each well or 40 μL RF-10/2 for negative controls and for assaying compound cytotoxicity. After 24 hrs, an additional 90 μL of media or media containing 1× compound is added to each well. At 4 days post infection, 100 μL of media is removed from each well and replaced with 100 μl of fresh media with or without compound. Forty eight hours later supernatants are harvested and levels of extracellular p24 determined. Supernatants are diluted 1 in 10,000 and p24 levels assayed using the Vironostika p24 assay kit. EC50 is calculated as the concentration required to inhibit HIV p24 production to 50% that of no drug controls.

[3] = target: T1, HIV integrase; experiment: Strand transfer specific assay; assay type: biochemical; settings: Table 8 cells marked (ST) / (ST assay): strand transfer specific
Method: as §1
The strand transfer specific assay is of similar format to that of the 3′processing/strand transfer combined assay except that it uses a biotinylated substrate that represents a pre-processed LTR end (5′-Bio-[…]-3′).

[4] = Table 8 cells that name no assay, taken as the 3'processing/strand transfer combined assay, read-out: IC50

Structure (SMILES) | IC50 [1, 4] | further results
N#Cc1c(-c2ccoc2)cc(-c2ccc(N3CCOCC3)cc2)nc1OCc1ccc(C(=O)O)cc1 [compound 14353] | < 10 µM | –
N#Cc1c(-c2ccoc2)cc(-c2ccc(N3CCOCC3)cc2)nc1OCc1ccc(C(=O)O)s1 [compound 14483] | – | IC50 [1]: 10 to 50 µM; EC50 [2]: < 10 µM
Cc1cc(C(=O)O)ccc1COc1nc(-c2ccc(N3CCOCC3)cc2)cc(-c2ccoc2)c1C#N [compound 14499] | < 10 µM | –
N#Cc1c(-c2ccoc2)cc(-c2ccc(N3CCOCC3)cc2)nc1OCc1nc(C(=O)O)cs1 [compound 14693] | < 10 µM | –
N#Cc1c(-c2ccoc2)cc(-c2ccc(N3CCOCC3)cc2)nc1OCc1nc(C(=O)O)co1 [compound 14761] | 10 to 50 µM | –
N#Cc1cc(C(=O)O)sc1COc1nc(-c2ccc(N3CCOCC3)cc2)cc(-c2ccoc2)c1C#N [compound 14905] | < 10 µM | –
N#Cc1c(-c2ccoc2)cc(-c2ccc(N3CCOCC3)cc2)nc1OCc1c(C(=O)O)csc1Br [compound 14906] | < 10 µM | –
Cc1cc(-c2cc(-c3ccc(N4CCOCC4)cc3)nc(OCc3ccc(C(=O)O)s3)c2C#N)on1 [compound 14959] | 10 to 50 µM | –
CCOc1cnc(-c2cc(-c3ccc(N4CCOCC4)cc3)nc(OCc3ccsc3C(=O)O)c2C#N)o1 [compound 14963] | 10 to 50 µM | –
CCOc1cnc(-c2cc(-c3ccc(N4CCOCC4)cc3)nc(OCc3csc(C(=O)O)c3)c2C#N)o1 [compound 15044] | 10 to 50 µM | –
Cc1cc(-c2cc(-c3ccc(N4CCOCC4)cc3)nc(OCc3csc(C(=O)O)c3)c2C#N)on1 [compound 15045] | < 10 µM | –
Cc1cc(-c2cc(-c3ccc(N4CCOCC4)cc3)nc(OCc3ccc(C(=O)O)cc3Br)c2C#N)on1 [compound 15300] | – | IC50 [3]: < 10 µM
CCOc1cnc(-c2cc(-c3ccc(N4CCOCC4)cc3)nc(OCc3ccc(C(=O)O)cc3Br)c2C#N)o1 [compound 15303] | – | IC50 [3]: < 10 µM
CCOc1cnc(-c2cc(-c3ccc(N4CCOCC4)cc3)nc(OCc3sc(C(=O)O)cc3C#N)c2C#N)o1 [compound 15424] | – | IC50 [3]: < 10 µM
N#Cc1c(-c2oncc2C(=O)O)cc(-c2ccc(N3CCOCC3)cc2)nc1OCc1ccc(C(=O)O)s1 [compound 15435] | – | IC50 [3]: < 10 µM
